The subject of test [1] is HCV 1a replicon. The experiment in a line: HCV GT1a replicon assay in Huh-7 cells. The class given is cell-based, Hepatitis C virus. The following applies: Hepatitis C virus; Huh-7 cells transfected with HCV replicon, 72 hours incubation; read-out: EC50 against HCV 1a genotype. The method, then:
(§1) HCV Replicon System was utilized as an evaluation model in the present disclosure for verifying the effects of the compounds disclosed herein on HCV. An HCV Replicon assay was first described in Science, 1999, 285 (5424), 110-3. […] To determine the potential anti-HCV effects of the test compounds, luciferase assay and antibiotic Neomycin resistance gene were tested according to the method described in Science. 1999 Jul. 2; 285 (5424), 110-3 and J. Virol. 2003 March; 77 (5), 3007-19.
(§2) In a word, the compounds disclosed herein were tested by using human hepatic carcinoma cell line which is transfected stably HCV GT1a, GT1b or GT2a replicon respectively, and resistant cells Y93H, L31F, P32L or I302V and wild-type cells HCV 1b. HCV Replicon System disclosed herein containing Neomycin resistance gene and Luciferase Reporter Gene, the level of HCV replication in host cells is characterized by the expression level of the NEO gene expression level or Luciferase Reporter Gene, and the effects of the compounds herein inhibit HCV replication can be evaluated. In this article, a real-time quantitative polymerase chain reaction (qPCR) method was used to detect NEO gene expression level, and chemiluminescence method was used to test Luciferase Reporter Gene expression level.
(§3) 1. Test Method for Measuring EC50 of the Compounds Base on Luciferase Assay.
(§4) The Huh-7 cells transfected with HCV replicons system were seeded into 96-well plates (8,000 cells in 125 μL/well) respectively; each test compound was diluted to desired concentration using 5-fold serial dilutions protocol, 10 doses in duplicate, and added to wells with POD™ 810 Plate Assembler. […] In this paper, experiments were repeated twice and set the holes without compounds as negative control.
(§5) 2. Test Method for Measuring EC50 of the Compounds by Detecting Antibiotic G418 Resistance Gene NEO Gene.
(§6) In this paper, experiments were repeated twice and set the holes without compounds as negative control.
A general note: Replicon systems follow genome replication, usually without infectious particles.

The test system of test [2] is HCV 1b replicon. The experiment in a line: HCV GT1b replicon assay in Huh-7 cells. It counts as cell-based, Hepatitis C virus. The following applies: Hepatitis C virus; Huh-7 cells transfected with HCV replicon, 72 hours incubation; read-out: EC50 against HCV 1b genotype. The method, then:
as §1, §2, §3, §4, §5, §6

Take `COC(=O)N[C@H](C(=O)N1CCC[C@H]1c1ncc(-c2ccc(-c3sc(-c4ccc5nc([C@@H]6CCCN6C(=O)[C@@H](NC(=O)OC)C(C)C)[nH]c(=O)c5c4)c4c3CC3(CCCC3)C4)cc2)[nH]1)C(C)C` [Example 28]: the results for the EC50 in test [1] and in test [2] were 1.1 nM and 0.763 nM, respectively.
In the same order, the values of `COC(=O)N[C@H](C(=O)N1CCC[C@H]1C1=Nc2cc(-c3cnc(-c4ccc(-c5cnc([C@@H]6CCCN6C(=O)[C@@H](NC(=O)OC)C(C)C)[nH]5)cc4)c4c3CC3(CCCC3)C4)ccc2S(=O)(=O)N1)C(C)C` [Example 29] are 0.061 nM and 0.009 nM.
In the same order, the values of `COC(=O)N[C@H](C(=O)N1CCC[C@H]1c1ncc(-c2ccc(-c3ncc(-c4ccc5nc([C@@H]6CCCN6C(=O)[C@@H](NC(=O)OC)C(C)C)[nH]c5c4)c4c3CC3(CCCC3)C4)c3c2CCC3)[nH]1)C(C)C` [Example 30] are 0.336 nM and 0.052 nM.
The like results for `COC(=O)N[C@H](C(=O)N1CCC[C@H]1c1ncc(-c2ccc(-c3ncc(-c4ccc5nc([C@@H]6CCCN6C(=O)[C@@H](NC(=O)OC)C(C)C)[nH]c5c4)c4c3CC3(CCCC3)C4)c3ccccc23)[nH]1)C(C)C` [Example 31] were, in that order, 5.87 nM and 0.539 nM.
Consider `COC(=O)N[C@H](C(=O)N1CCC[C@H]1c1ncc(-c2ccc(-c3sc(-c4ccc5nc([C@@H]6CCCN6C(=O)[C@@H](NC(=O)OC)C(C)C)[nH]c5c4)c4c3CC3(CCCC3)C4)c3cnoc23)[nH]1)C(C)C` [Example 32], for which the 50% effective concentration (EC50) in test [1] amounted to 10.3 nM; in test [2], 0.446 nM.
In the same order, the values of `COC(=O)NC(C(=O)N1CCC[C@H]1c1ncc(-c2ccc(-c3cc(F)c(-c4ccc5nc([C@@H]6CCCN6C(=O)[C@@H](NC(=O)OC)C(C)C)[nH]c(=O)c5c4)c4c3CC3(CCCC3)C4)nc2)[nH]1)C(C)C` (stereo partly drawn) [Example 33] are 0.078 nM and 0.022 nM.
The like results for `COC(=O)NC(C(=O)N1CCC[C@@H]1c1ncc(-c2ccc(-c3ccc(-c4ccc5nc([C@@H]6CCCN6C(=O)[C@@H](NC(=O)OC)C(C)C)[nH]c(=O)c5c4)c4c3CC3(CCCC3)C4)cc2)[nH]1)C(C)C` (stereo partly drawn) [Example 34] were, in that order, 0.641 nM and 0.055 nM.
In the same order, the values of `COC(=O)NC(C(=O)N1CCCC1c1cc(=O)c2cc(-c3ccc(-c4ccc(-c5cnc(C6CCCN6C(=O)C(NC(=O)OC)C(C)C)[nH]5)cc4)c4c3CC3(CCCC3)C4)ccc2[nH]1)C(C)C` (stereo not drawn) [Example 35] are 10.6 nM and 0.103 nM.
As to `COC(=O)NC(C(=O)N1CCCC1C1=Nc2cc(-c3ccc(-c4ccc(-c5cnc(C6CCCN6C(=O)C(NC(=O)OC)C(C)C)[nH]5)cc4)c4c3CC3(CCCC3)C4)ccc2C(C)(C)N1)C(C)C` (stereo not drawn) [Example 36], the EC50 in test [1] turned out to be 0.438 nM; in test [2], 0.062 nM.

A word on the EC50: it is the midpoint of the concentration-response curve.

(Values after patent publication US9416139B2, “Spiro ring compound as hepatitis C virus (HCV) inhibitor and uses thereof” (SUNSHINE LAKE PHARMA CO., LTD., priority 2012, dated 2016).)
